Active and inactive are the calls of the source.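 How the source made its calls: active means fitted curve falls past a set limit of signal loss at no more than twice the top dose; inconclusive means flat fit between 30 and 70% signal loss, or poor fit; inactive means signal rise, flat within 30%, or crossing too high.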

The first experiment can be described thus: HEK293T cell cytotoxicity, dose response, cytotoxicity control, CellTiter-Glo luminescence, cherry-pick, set 3 (AID 720588). Particulars: HEK293T viability, CellTiter-Glo ATP luminescence, 72 h; at 21 µM (top of the series).
On to `Cc1ccc(S(=O)(=O)N(C)C[C@@H]2Oc3ccc(NC(=O)CCCCCC(=O)Nc4ccccc4N)cc3CC(=O)N([C@@H](C)CO)C[C@@H]2C)cc1`, for which the activity change, negative = cytotoxicity was 3.82% (inactive).

The experiment is the same for the next values; noted with them: HEK293T viability, CellTiter-Glo ATP luminescence, 72 h; at 23.5 µM (top of the series).
Take `C[C@H]1CN([C@@H](C)CO)C(=O)Cc2cc(NC(=O)CCCCCC(=O)Nc3ccccc3N)ccc2O[C@H]1CN(C)Cc1ccc(Cl)c(Cl)c1`: the activity change, negative = cytotoxicity was -33.8% (inactive).
Still for that read-out and setting: the figure for `COC(=O)C[C@@H]1CC[C@@H]2[C@H](COc3ccc(NC(=O)c4cccc(F)c4)cc3C(=O)N2C)O1` is -28.5% (inactive).

Still in this experiment, the particulars now being: HEK293T viability, CellTiter-Glo ATP luminescence, 72 h; at 26 µM (top of the series).
Regarding `OC[C@H]1O[C@@H](n2cnc3c(NCc4ccco4)ncnc32)[C@H](O)[C@@H]1O`, the activity change, negative = cytotoxicity was -42.7% (inactive).
In the case of `O=C(CCCCl)Nc1nc(-c2ccc3c(c2)OCCO3)cs1`, the activity change, negative = cytotoxicity is 13.6% (inactive).
Turning to `Cc1nn(-c2ccc(F)cc2)c2nc(N)c(C#N)c(-c3ccc(O)c(O)c3)c12`, the activity change, negative = cytotoxicity was -12.7% (inactive).
On the same count and under the same terms, the figure for `COc1cc(OC)cc(-c2cc3nc(C)c(CCC(=O)O)c(C)n3n2)c1` is 11.4% (inactive).
On the same count and under the same terms, the figure for `CN(C)C(=O)c1ccc(-c2ccccc2[C@@H]2[C@@H](CO)N(C(=O)C3CC3)[C@H]2C#N)cc1` is 13.4% (inactive); for `C[C@@H]1CN([C@H](C)CO)C(=O)CCCn2nncc2CO[C@H]1CN(C)Cc1ccc(Oc2ccccc2)cc1` it is -3.49% (inactive); for `COc1ccc(/C=C2\SC(=O)N(CCCC(=O)Nc3cc(Cl)ccc3C(=O)O)C2=O)cc1` it is -2.58% (inactive).
With `COCC(=O)Nc1ccc2c(c1)[C@@H]1C[C@@H](CC(=O)NCc3ccc(-c4ccccc4)cc3)O[C@@H](CO)[C@@H]1O2`, the activity change, negative = cytotoxicity was 13.6% (inactive).
On the same count and under the same terms, the figure for `CCc1cnc(N2[C@H](C#N)[C@H](c3ccc(C#Cc4ccccc4F)cc3)[C@H]2CO)s1` is -15.3% (inactive); for `O=C(O)CN1C(=O)/C(=C\c2ccccc2OCc2ccc(Cl)cc2Cl)SC1=S` it is 4.7% (inactive).
Still for that read-out and setting: the value for `Cc1cc(C(=O)Nc2ccc3c(c2)C(=O)N(C)[C@@H]2CC[C@H](CC(=O)N[C@H](C)c4ccccc4)O[C@H]2CO3)no1` was 8.37% (inactive); that for `S=C(NCCN1CCOCC1)Nc1ccccc1Cl` was -17.7% (inactive); that for `COc1cccc(Sc2ccccc2/C=N/NC(N)=O)c1` was -10.9% (inactive).
On the same count and under the same terms, the value for `O=C(NC1CCCC1)C(c1ccccc1)n1c(CSCCOc2ccccc2)nc2ccccc21` (stereo not drawn) was -14.3% (inactive); that for `O=C(O)c1ccccc1C(=O)Nc1ccc(Oc2cccc3ccccc23)cc1` was -24.2% (inactive).
Consider `COc1ccc(-c2sc3ccccc3c2-c2ccc(OCCN3CCCCC3)cc2)cc1`, for which the activity change, negative = cytotoxicity was -16% (inactive).
Still for that read-out and setting: the value for `CCOC(=O)C1CCCCN1C(=O)CCc1c(C)nc2cc(-c3ccccc3)nn2c1C` (stereo not drawn) was -10.8% (inactive).
The same measure, in the same setting: the figure for `COc1ccc(C(=O)Nc2cccc(C(=O)N/N=C/c3ccc(OC)cc3OC)c2)cc1` is -15.7% (inactive); for `O=C(Nc1nc(-c2ccc(F)c(F)c2)cs1)c1ccc(OCC2CCCO2)cc1` (stereo not drawn) it is -9.94% (inactive).
With `CC(C)(C)[S@](=O)N1Cc2cc(C(=O)NCC(F)(F)F)nc(-c3cccc(-c4cccc(F)c4)c3)c2[C@@H]1CCO`, the activity change, negative = cytotoxicity was -2.37% (inactive).
With `CCOC(=O)Cc1csc(NC(=S)NC(=O)c2ccc(C)cc2)n1`, the activity change, negative = cytotoxicity is -21.9% (inactive).
Turning to `Cc1ccc(-c2ccc3c(c2)O[C@@H](CN(C)C(=O)Nc2ccc(F)cc2)[C@H](C)CN([C@@H](C)CO)S3(=O)=O)cc1`, the activity change, negative = cytotoxicity is 48.8% (inactive).
In the case of `C[C@H](CO)N1C[C@H](C)[C@H](CN(C)Cc2ccc(Oc3ccccc3)cc2)Oc2ccc(NC(=O)CCCCCC(=O)Nc3ccccc3N)cc2CC1=O`, the activity change, negative = cytotoxicity was -19.4% (inactive).
For `CC(=O)Nc1cc(C(=O)NCc2ccco2)ccc1Sc1ccc(F)cc1`, the activity change, negative = cytotoxicity is 12.1% (inactive).
Still for that read-out and setting: the value for `C[C@H]1CN([C@@H](C)CO)C(=O)c2cc(NS(=O)(=O)c3ccc(Cl)cc3)ccc2O[C@H]1CN(C)Cc1ccc(C(=O)Nc2ccccc2N)cc1` was -0.354% (inactive); that for `Cc1ccc(N=C2NC(=O)/C(=C\c3cccs3)S2)cc1C` was -13% (inactive); that for `CCC(C)Cn1c(O)cc2nn(-c3nc4ccccc4s3)c(=O)c-2c1C` (stereo not drawn) was 3.58% (inactive).
Still for that read-out and setting: the value for `O=C(NC(c1ccc(F)cc1)c1ccc2ccccc2n1)C1CCN(Cc2cccc(C(F)(F)F)c2)CC1` (stereo not drawn) was -38.4% (inactive); that for `CC(C)c1oc(=O)cc2c1[C@@H](O)[C@H]1OC(=O)[C@@]3(C)CC[C@@H](O)[C@@]2(C)C13` (stereo partly drawn) was -27.6% (inactive).
Take `COC(=O)C[C@@H]1CC[C@@H]2[C@@H](COc3ccc(NC(=O)Cc4cccs4)cc3C(=O)N2C)O1`: the activity change, negative = cytotoxicity is -8.47% (inactive).
As to `N#Cc1cccc(-c2ccc(C3[C@@H]4CN(C(=O)Cc5ccncc5)C[C@H]3N4)cc2)c1` (stereo partly drawn), the activity change, negative = cytotoxicity was 35.3% (inactive).
On to `CC(C)c1ccccc1NC(=O)COC(=O)CCN1C(=O)/C(=C\C=C\c2ccccc2)SC1=S`, for which the activity change, negative = cytotoxicity was -10.7% (inactive).
On to `COC(=O)C[C@H]1CC[C@@H](NC(=O)Nc2ccc(C(F)(F)F)cc2)[C@H](CO)O1`, for which the activity change, negative = cytotoxicity is 9.14% (inactive).
On the same count and under the same terms, the value for `Nc1ccc2c(c1)OC1(CCCC1)O2` was -16.1% (inactive); that for `C[C@@H]1CN([C@@H](C)CO)C(=O)Cc2cc(NC(=O)C3CCCCC3)ccc2O[C@H]1CN(C)Cc1ccc(C(=O)Nc2ccccc2N)cc1` was 7.97% (inactive); that for `Cc1sc2nc(CN3CCC(C)CC3)nc(Cl)c2c1C` was 5.44% (inactive).
Turning to `N#C[C@H]1[C@H](c2ccc(-c3ccccc3F)cc2)[C@@H](CO)N1C(=O)Cc1ccccc1`, the activity change, negative = cytotoxicity was -28.3% (inactive).
In the case of `CC(=O)N1CCCC(c2cc(C(=O)Nc3ccccc3)no2)C1` (stereo not drawn), the activity change, negative = cytotoxicity is -1.97% (inactive).
Take `C/C(=N\OCc1cccc(C(=O)O)c1)c1ccc(Cl)cc1`: the activity change, negative = cytotoxicity was -6.62% (inactive).
For the compound `O=C(CN1C(=O)C(=O)c2ccccc21)c1ccc(Cl)cc1`, the activity change, negative = cytotoxicity is -23.4% (inactive).
On the same count and under the same terms, the figure for `CC(C)c1ccc(OCc2cccc(C(=O)N/N=C/c3cccnc3)c2)cc1` is -18.1% (inactive); for `Nc1nc(N)c2c(ccc3nccc32)[nH]1` it is -30.1% (inactive); for `O=C(/C=C/c1cc(Br)ccc1O)c1ccco1` it is -23.9% (inactive).
The same measure, in the same setting: the figure for `N#CC1C=Cc2c(ccc3ccccc23)N1C(=O)c1ccccc1` (stereo not drawn) is -20.1% (inactive); for `COC(=O)c1cccc(NC(=O)NC(=O)c2ccccc2Cl)c1` it is -19% (inactive).
With `COC(=O)C[C@@H]1CC[C@H]2[C@H](COc3ccc(NC(=O)Nc4cc(C)cc(C)c4)cc3C(=O)N2C)O1`, the activity change, negative = cytotoxicity was -2.27% (inactive).
For `COc1cc(/C=N/NS(=O)(=O)c2ccc3ccccc3c2)ccc1OCc1ccc(C(=O)O)cc1`, the activity change, negative = cytotoxicity was -17.5% (inactive).
On the same count and under the same terms, the value for `Cc1cc(C)cc(OCC(=O)OCC(=O)Nc2cc(S(=O)(=O)N3CCOCC3)ccc2C)c1` was -14.2% (inactive).
On the same count and under the same terms, the figure for `Cc1ccsc1C(=O)OCC(=O)NCCC1=CCCCC1` is -24.7% (inactive); for `COc1ccc(-c2nc3c(s2)CCc2onc(-c4ccc(OC)cc4)c2-3)cc1` it is -17.8% (inactive).
The same measure, in the same setting: the value for `COc1ccc(CN(C)c2ncnc3sccc23)c(OC)c1OC` was -29.1% (inactive); that for `COc1ccc(NC(=O)c2cc3ccccc3oc2=O)cc1` was -17.4% (inactive).
Turning to `COC(=O)C[C@@H]1CC[C@@H]2[C@@H](COc3ccc(NC(=O)Nc4cccc(F)c4)cc3C(=O)N2C)O1`, the activity change, negative = cytotoxicity was -28.1% (inactive).
Still for that read-out and setting: the value for `Cc1ccc(N2C(=O)c3cccc4c(N)ccc(c34)C2=O)c2cccnc12` was -19.1% (inactive); that for `O=C1CCC2S/C(=C/Nc3ccc(C(F)(F)F)cc3)C(=O)N12` (stereo not drawn) was -9.48% (inactive).
Same read-out and setting: the value for `CN1C(=O)c2cc(NC(=O)c3ccc(C(F)(F)F)cc3)ccc2OC[C@@H]2O[C@@H](CC(=O)NC3Cc4ccccc4C3)CC[C@H]21` was -32.5% (inactive).
Still for that read-out and setting: the figure for `CCOc1cc2[nH]c(=S)n(Cc3ccc(C(=O)NCCN(CC)CC)cc3)c(=O)c2cc1OCC` is -4.81% (inactive).
In the case of `COc1ccc(N=C2C(=O)Nc3ccc(C)c(Br)c32)cc1`, the activity change, negative = cytotoxicity was -21.9% (inactive).
On the same count and under the same terms, the value for `CCOc1ccc(-c2cc(CCCC(=O)NCc3ccc(C)cc3)no2)cc1` was 8.45% (inactive); that for `CCc1c(C(=O)NN2C(=O)C3CCCCC3C2=O)csc1C` (stereo not drawn) was -15.1% (inactive).
Same read-out and setting: the value for `CO[C@H]1CN(C)C(=O)c2cc(NC(=O)NC(C)C)ccc2OC[C@H](C)N(Cc2ccc(-c3ccccn3)cc2)C[C@@H]1C` was -13.6% (inactive).
The same measure, in the same setting: the figure for `COC(=O)c1cccc(NC(=O)NC(=O)c2ccc(Cl)cc2)c1` is -17% (inactive).
For the compound `Cc1nc2cc(-c3ccc(Cl)cc3)nn2c(C)c1CCC(=O)NC(C)c1ccc2c(c1)OCCO2` (stereo not drawn), the activity change, negative = cytotoxicity is -34.9% (inactive).
Consider `COCCCNc1ccn2nc(-c3ccccc3)cc2n1`, for which the activity change, negative = cytotoxicity is -27.1% (inactive).
In the case of `N=c1ccn2c(n1)O[C@H]1[C@H](O)[C@@H](CO)O[C@H]12`, the activity change, negative = cytotoxicity is -7.04% (inactive).

Source of the values: PubChem BioAssay AID720588 (Broad Institute, 2013).
